The values that follow come from paper PMC7529893, “Structural basis for substrate recognition and chemical inhibition of oncogenic MAGE ubiquitin ligases” (Nature Communications, 2020).

This test addresses T1, MAGE-A11:PCF11 interaction (GST-MAGE-A11 and FAM-PCF11_4) (Homo sapiens, UniProt P43364).
T1 construct: GST-MAGE-A11 MHD (human MAGE-A11 MHD amino acid 218-429); made in house; host or cells: E. coli BL21(DE3)
T1 sequence (P43364 218-429): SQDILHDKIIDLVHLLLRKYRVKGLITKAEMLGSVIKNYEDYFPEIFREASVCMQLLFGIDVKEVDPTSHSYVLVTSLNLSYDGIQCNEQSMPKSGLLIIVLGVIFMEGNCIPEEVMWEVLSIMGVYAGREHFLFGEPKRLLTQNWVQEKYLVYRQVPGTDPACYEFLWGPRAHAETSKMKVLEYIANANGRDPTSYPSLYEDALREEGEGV
Briefly: TR-FRET primary / single point screen at 15 µM. The test is classed as binding. The gist of the method:
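Single-point screen at 15 µM final compound in 50 mM Tris pH 7.5, 20 mM MgCl2, 0.1 mg/ml BSA, 1 mM DTT, with 200 nM FAM-PCF11_4, 5 nM Tb-anti-GST and 5 nM GST-MAGE-A11. After 90 min at room temperature, the 520/490 nm TR-FRET ratio (340 nm excitation) gave %Inhibition against no-MAGE-A11 and DMSO controls.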
A general note: TR-FRET usually uses a lanthanide donor and a delayed reading to cut background.

Where [1] appears, read: single point TR-FRET screening of 797 quinoline compounds against MAGE-A11:PCF11.
[2] abbreviates: single point TR-FRET screening of quinoline compounds against MAGE-A11:PCF11, 15 µM.

Each structure is given as a SMILES string.

Turning to `COc1ccc2nc3cc(Cl)ccc3c(NCCCNCc3ccc(Br)o3)c2c1` [SJ000523030], under setting [1], the “percent inhibition (TR-FRET)” value is -219.419. The same measure, in the same setting: under `O=C(CN1CCN(C(c2ccccc2)c2ccccc2)CC1)Nc1c2c(nc3ccccc13)CCC2` [SJ000111684] stands 11.85; under `Fc1ccc(CN(CCCCNc2ccnc3cc(Cl)ccc23)Cc2ccccc2)cc1` [SJ000522725], 30.2004. `Cc1cc(N2CCN(CC(O)CO)CC2)c2ccccc2n1` (stereo not shown) [SJ000227653]: the “percent inhibition (TR-FRET)” value under setting [1] is listed as -4.954. On the same count and under the same terms, with `COc1ccc(S(=O)(=O)N2CCN(c3ccnc4cc(Cl)ccc34)CC2)cc1` [SJ000199955] the figure was -32.0719. On the same count and under the same terms, with `COc1ccccc1CN(CCCCNc1ccnc2cc(Cl)ccc12)Cc1ccccc1` [SJ000522726] the figure was 19.4021; with `COc1ccc2nc3cc(Cl)ccc3c(NCCCNCc3cccn3C)c2c1` [SJ000520985], -402.468. For `CCCN(CCCNc1c2ccc(Cl)cc2nc2ccc(OC)cc12)Cc1cccnc1` [SJ000575152], the “percent inhibition (TR-FRET)” value under setting [2] is reported as -23.4028. Turning to `CCCCCCNCCCNc1c2ccc(Cl)cc2nc2ccc(OC)cc12` [SJ000361097], the “percent inhibition (TR-FRET)” value under setting [1] is -281.691. Same read-out and setting: with `COc1cc2ncc(S(=O)(=O)c3ccc(Cl)cc3)c(N3CCN(C)CC3)c2cc1OC` [SJ000083953] the figure was 4.674; with `Cc1ccc(S(=O)(=O)c2cnc3ccccc3c2N2CCN(c3ccccc3)CC2)cc1` [SJ000117047], -6.567. In the case of `CCCN(CCCNc1ccnc2cc(Cl)ccc12)Cc1ccc(C)s1` [SJ000357433], the “percent inhibition (TR-FRET)” value under setting [2] was 16.5062. Consider `Clc1ccc2c(NCCCNCc3nc4ccccc4s3)ccnc2c1` [SJ000521034], for which, under setting [2], the “percent inhibition (TR-FRET)” value is recorded as 4.695. On to `Clc1ccc2c(NCCCCN(Cc3ccccc3)Cc3ccoc3)ccnc2c1` [SJ000312685], for which the “percent inhibition (TR-FRET)” value under setting [1] worked out at 14.8973.

Turning to `COc1cc(Cc2ccc3c(NCCCNCc4ccco4)ccnc3c2)cc(OC)c1` [SJ000311310], the “percent inhibition (TR-FRET)” value under setting [2] is 23.7879. On the same count and under the same terms, under `CCCN(CCCNc1ccnc2cc(C(F)(F)F)ccc12)Cc1nc(C)cs1` [SJ000521010] stands 0.8927. Regarding `COc1ccc2nc3cc(Cl)ccc3c(NCCCNCc3ccc4[nH]ccc4c3)c2c1` [SJ000520914], the “percent inhibition (TR-FRET)” value under setting [1] was -184.229. Take `CCCN(CCCNc1ccnc2cc(Cl)ccc12)Cc1cncc(Br)c1` [SJ000523004]: the “percent inhibition (TR-FRET)” value under setting [2] stood at 4.828. Take `Cc1ccc(CN(CCCNc2ccnc3cc(Cl)ccc23)Cc2ccccc2)s1` [SJ000312673]: the “percent inhibition (TR-FRET)” value under setting [2] turned out to be 4.629.

As for `CCCN(CCCNc1c2ccc(Cl)cc2nc2ccc(OC)cc12)Cc1c[nH]c2ccccc12` [SJ000522978], the “percent inhibition (TR-FRET)” value under setting [1] is reported as -166.235.

For the molecule `CCCN(CCCNc1ccnc2cc(C(F)(F)F)ccc12)CC(CC)CC` [SJ000361269], the “percent inhibition (TR-FRET)” value under setting [2] turned out to be 30.6641. Same read-out and setting: with `CCCN(CCCNc1ccnc2cc(C(F)(F)F)ccc12)Cc1ccccc1C(F)(F)F` [SJ000361259] the figure was 4.988. On to `CCCN(CCCNc1ccnc2cc(Cl)ccc12)Cc1ccccc1` [SJ000357431], for which the “percent inhibition (TR-FRET)” value under setting [2] was 19.1371. On the same count and under the same terms, under `CCCN(CCCNc1ccnc2cc(C(F)(F)F)ccc12)Cc1ccc(Cl)cc1Cl` [SJ000523078] stands 3.83. In the case of `CCCN(CCCNc1ccnc2cc(Cl)ccc12)Cc1cccc2c1OCO2` [SJ000357594], the “percent inhibition (TR-FRET)” value under setting [2] is 18.1434. Turning to `Cn1cc(CN(CCCCNc2ccnc3cc(Cl)ccc23)Cc2ccccc2)c2ccccc21` [SJ000520440], the “percent inhibition (TR-FRET)” value under setting [1] was -14.3502. As to `CCCN(CCCNc1c2ccc(Cl)cc2nc2ccc(OC)cc12)Cc1ccc2ccccc2c1` [SJ000520953], under setting [1], the “percent inhibition (TR-FRET)” value was -129.124. As to `Clc1ccc2c(NCCCN(Cc3ccccc3)Cc3ccccn3)ccnc2c1` [SJ000312678], under setting [2], the “percent inhibition (TR-FRET)” value is recorded as -3.851.
